In ChEMBL document CHEMBL1201862, “PubChem BioAssay data set” (2004):
Activity calls are given as the source filed them.

Legend:
[1] = molecular target: T1, Mucolipin-3 (Homo sapiens, UniProt Q8TDD5); experiment: Dose response cell-based high-throughput screening assay for agonists of the transient receptor potential channel ML3 (TRPML3). [Related pubchem assays: 1526, 1424, 1448 ]; type: functional
T1 sequence (Q8TDD5 whole entry): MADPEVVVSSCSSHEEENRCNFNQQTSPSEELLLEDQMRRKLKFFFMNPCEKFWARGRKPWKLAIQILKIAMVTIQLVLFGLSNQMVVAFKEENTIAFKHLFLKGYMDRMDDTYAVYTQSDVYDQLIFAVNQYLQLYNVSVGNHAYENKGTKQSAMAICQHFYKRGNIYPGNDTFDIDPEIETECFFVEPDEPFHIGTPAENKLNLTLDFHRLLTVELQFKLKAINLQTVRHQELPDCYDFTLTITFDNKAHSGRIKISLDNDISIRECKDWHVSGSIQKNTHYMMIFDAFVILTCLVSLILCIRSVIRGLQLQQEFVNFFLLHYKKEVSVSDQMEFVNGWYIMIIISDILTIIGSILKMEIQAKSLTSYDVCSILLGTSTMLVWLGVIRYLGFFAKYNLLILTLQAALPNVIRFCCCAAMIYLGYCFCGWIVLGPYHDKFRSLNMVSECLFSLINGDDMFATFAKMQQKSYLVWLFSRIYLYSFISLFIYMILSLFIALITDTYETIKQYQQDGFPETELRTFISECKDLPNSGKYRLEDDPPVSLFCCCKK

[2] = molecular target: Ion channel NompC (Danio rerio, UniProt Q7T1G6); experiment: Fluorescence counterscreen assay for TRPML3 agonists: dose response cell-based high-throughput screening assay to identify agonists of the transient receptor potential channel N1 (TRPN1). [Related pubchem assays: 1526, 1424, 1448 ]; type: functional
[3] = cells; type: functional, cell-based
[4] = system: HEK293; experiment: cells; type: functional, cell-based; conditions: Homo sapiens
[5] = alpha-synuclein stem-loop luciferase translation blockers – H4 neuroglioma cells, luminescence, confirmation (AID 1988); type: functional, cell-based
[6] = luciferase reporter signal reduction – luminescence, H4-C neuroglioblastoma cells, dose response (AID 2458); type: functional, cell-based;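 note: H4 neuroglioblastoma cells stably carrying a luciferase reporter gene fusion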
[7] = system: HEK293; experiment: NOD2 signaling inhibitors in MDP-stimulated cells, cell-based, uHTS, luminescence (AID 2001); type: functional; conditions: Homo sapiens
[8] = molecular target: Nucleotide-binding oligomerization domain-containing protein 2 (Homo sapiens, UniProt Q9HC29); experiment: inhibition of NOD2-driven NF-kB reporter – cell-based, luminescence, uHTS, HEK293 (AID 1566); type: functional
[9] = luciferase reporter signal suppression in cells – H4 neuroglioma cells, luminescence, dose response (AID 1990); type: functional, cell-based
[10] = system: HEK293; experiment: cells; type: functional, cell-based; conditions: Homo sapiens; remark: listed apart in the source
[11] = system: HEK293; experiment: inhibition of NOD1-driven NF-kB reporter – cell-based, luminescence, uHTS, primary screen (AID 1578); type: functional; conditions: Homo sapiens
[12] = Luminescence Cell-Based Dose Response HTS to Identify Inhibitors of 5'UTR Stem-Loop Driven Prion Protein mRNA Translation in H4 Neuroglioblastoma Cells. [Related pubchem assays: 1827 (Project Summary), 1813 (Primary HTS)]; type: functional
[13] = system: HEK293; experiment: cells; type: functional, cell-based; conditions: Homo sapiens; remark: listed apart in the source
[14] = alpha-synuclein stem-loop translation blockers – luminescence, H4 neuroglioblastoma cells, dose confirmation, confirmation (AID 2454); type: functional, cell-based;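 note: H4 neuroglioblastoma cells carrying an alpha-synuclein 5'UTR luciferase reporter; potency for inhibition of the luciferase signal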
[15] = molecular target: T2, Aminopeptidase N (Plasmodium falciparum FcB1/Columbia, UniProt O96935); experiment: malaria alanyl aminopeptidase activity blockers – biochemical, fluorogenic H-Leu-NHMec substrate, 1536-well (AID 1445); set-up: species or system Plasmodium falciparum 3D7, 3D7
T2 sequence (O96935 whole entry): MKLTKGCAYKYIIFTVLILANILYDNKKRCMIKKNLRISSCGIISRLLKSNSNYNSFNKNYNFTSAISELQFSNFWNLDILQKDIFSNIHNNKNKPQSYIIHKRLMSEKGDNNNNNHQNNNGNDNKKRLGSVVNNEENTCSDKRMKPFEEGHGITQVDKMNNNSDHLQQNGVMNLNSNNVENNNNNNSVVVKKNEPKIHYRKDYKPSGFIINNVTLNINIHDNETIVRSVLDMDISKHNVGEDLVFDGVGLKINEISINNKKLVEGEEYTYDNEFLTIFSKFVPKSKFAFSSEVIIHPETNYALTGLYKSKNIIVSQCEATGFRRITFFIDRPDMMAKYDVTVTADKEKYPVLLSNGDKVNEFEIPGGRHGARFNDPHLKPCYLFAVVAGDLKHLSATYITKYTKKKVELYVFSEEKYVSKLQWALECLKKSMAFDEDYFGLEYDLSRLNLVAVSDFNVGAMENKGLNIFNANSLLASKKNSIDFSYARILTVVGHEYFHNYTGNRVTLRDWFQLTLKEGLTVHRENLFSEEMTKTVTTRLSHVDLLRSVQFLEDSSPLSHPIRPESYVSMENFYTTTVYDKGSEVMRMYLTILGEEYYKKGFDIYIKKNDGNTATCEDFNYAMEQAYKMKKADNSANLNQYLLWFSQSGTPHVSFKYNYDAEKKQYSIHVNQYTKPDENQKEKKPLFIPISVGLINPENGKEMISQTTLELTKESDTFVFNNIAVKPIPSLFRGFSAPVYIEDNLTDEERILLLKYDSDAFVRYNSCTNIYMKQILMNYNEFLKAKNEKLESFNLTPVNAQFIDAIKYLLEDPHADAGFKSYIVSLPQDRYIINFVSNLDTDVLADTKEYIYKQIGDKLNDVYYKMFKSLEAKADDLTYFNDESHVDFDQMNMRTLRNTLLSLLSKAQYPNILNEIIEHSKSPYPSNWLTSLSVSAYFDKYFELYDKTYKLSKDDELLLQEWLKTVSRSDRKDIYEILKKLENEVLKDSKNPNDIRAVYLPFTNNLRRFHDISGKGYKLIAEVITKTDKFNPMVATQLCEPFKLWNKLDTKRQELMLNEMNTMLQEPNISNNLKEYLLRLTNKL

[16] = system: INS1; experiment: INS-1E survival protection against cytokine death – cell-based, luminescence, retest, dose response (AID 449756); type: functional; conditions: Rattus norvegicus;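 note: cell death triggered by IL-1 beta plus TNF-alpha plus IFN-gamma mixture; protective hits raise ATP signal compared with cytokine alone wells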
[17] = toxicity toward HepG2 liver cells – cell-based, plate reader, cherry-pick, antagonist series, cytotoxicity control, dose response (AID 743416); type: functional
[18] = blockers of bursicon-stimulated LGR2 cAMP reporter – cell-based, HEK293, CRE-luciferase reporter, cherry pick, set 2, dose response (AID 743343); type: functional;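 note: transfected cells were stimulated with diluted bursicon conditioned medium after compound addition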
[19] = blockade of melanocortin 4 receptor signaling – cell-based, plate reader, cherry pick, counter-screen for LGR2 antagonist project, dose response (AID 743444); type: functional;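 note: transfected HEK 293 cells stimulated with alpha-MSH peptide; potency of inhibitors of the alpha-MSH evoked signal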
[20] = A549 cell cytotoxicity, dose response, cytotoxicity control, plate reader, cherry-pick, antagonist series (AID 743412); type: functional, cell-based
[21] = molecular target: T3, Protein Tat (Human immunodeficiency virus type 1 group M subtype B (isolate HXB2)(HIV-1), UniProt P04608); type: functional;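 note: tat binding to TAR RNA read out by fluorescence polarization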
T3 sequence (P04608 whole entry): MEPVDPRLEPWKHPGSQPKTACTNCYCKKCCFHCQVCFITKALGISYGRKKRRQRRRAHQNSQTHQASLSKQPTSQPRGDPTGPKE

[22] = cells
[23] = NIH3T3 cell viability loss – ATP luminescence, mouse fibroblasts, counter-screen, dose response (AID 2010); type: functional, cell-based;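 note: cells exposed to compound for about 90 hours before reading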
[24] = molecular target: T4, Short transient receptor potential channel 4 (Mus musculus, UniProt Q9QUQ5); experiment: block of DAMGO-driven TRPC4 calcium entry – cell-based, HEK293 TRPC4/mu-opioid, Fluo-4 calcium, dose response (AID 434942); type: functional;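 note: potency of inhibitors blocking the TRPC4 calcium response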
T4 sequence (Q9QUQ5 whole entry): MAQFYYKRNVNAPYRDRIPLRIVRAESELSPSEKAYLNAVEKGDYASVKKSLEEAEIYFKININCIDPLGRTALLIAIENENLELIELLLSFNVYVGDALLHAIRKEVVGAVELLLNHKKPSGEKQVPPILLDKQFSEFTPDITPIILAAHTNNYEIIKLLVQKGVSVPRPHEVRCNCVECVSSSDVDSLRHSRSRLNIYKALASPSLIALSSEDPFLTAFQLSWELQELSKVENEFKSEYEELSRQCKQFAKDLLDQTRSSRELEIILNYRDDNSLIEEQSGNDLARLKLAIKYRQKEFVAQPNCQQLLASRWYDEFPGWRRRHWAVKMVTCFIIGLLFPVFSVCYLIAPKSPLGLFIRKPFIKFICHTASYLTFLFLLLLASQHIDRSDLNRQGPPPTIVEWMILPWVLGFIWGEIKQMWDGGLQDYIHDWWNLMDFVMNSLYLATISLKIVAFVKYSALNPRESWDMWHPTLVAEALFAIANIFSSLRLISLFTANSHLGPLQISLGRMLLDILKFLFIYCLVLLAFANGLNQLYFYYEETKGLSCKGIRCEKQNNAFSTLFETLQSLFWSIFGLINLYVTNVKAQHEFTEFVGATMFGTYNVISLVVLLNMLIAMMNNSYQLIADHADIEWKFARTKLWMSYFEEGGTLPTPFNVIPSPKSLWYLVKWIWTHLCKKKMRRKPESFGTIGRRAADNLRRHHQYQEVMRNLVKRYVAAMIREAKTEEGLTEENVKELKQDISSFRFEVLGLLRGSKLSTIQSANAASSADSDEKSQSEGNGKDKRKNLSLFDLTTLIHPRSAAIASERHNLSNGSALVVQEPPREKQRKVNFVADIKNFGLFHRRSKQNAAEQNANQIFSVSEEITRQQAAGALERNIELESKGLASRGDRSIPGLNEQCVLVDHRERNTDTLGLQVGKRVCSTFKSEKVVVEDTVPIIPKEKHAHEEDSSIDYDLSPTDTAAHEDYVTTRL

[25] = NIH-3T3 fibroblast cytotoxicity, dose response, cytotoxicity control, cell-based, fluorescence, Alamar Blue, secondary assay (AID 2327); type: functional;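 note: NIH-3T3 mouse fibroblasts cultured with fluconazole at 8 µg/mL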
[26] = fluconazole-exposed Candida albicans growth modulators – fluorescence, retest, confirmation (AID 2467); type: functional, cell-based
[27] = molecular target: Large T antigen (Simian virus 40, UniProt P03070); type: functional, Betapolyomavirus macacae;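 note: Confirmatory-stage PubChem screen for compounds that inhibit SV40 T antigen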
[28] = Trypanosoma cruzi growth suppression in host cells – NIH3T3 host cells, beta-gal luminescence, confirmation (AID 2044); type: functional, cell-based;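 note: intracellular parasites grown in NIH/3T3 mouse fibroblasts as host cells; luminescent beta-galactosidase reporter signal from transgenic T. cruzi replicating inside host cells; inhibitors lower the luminescence signal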
[29] = molecular target: Estrogen receptor beta (Homo sapiens, UniProt Q92731); experiment: blockers of SRC-3 recruitment to ERβ – biochemical, ELISA, streptavidin-HRP readout, orthogonal assay, confirmation (AID 1060)
Chain of Estrogen receptor beta (Q92731 whole entry): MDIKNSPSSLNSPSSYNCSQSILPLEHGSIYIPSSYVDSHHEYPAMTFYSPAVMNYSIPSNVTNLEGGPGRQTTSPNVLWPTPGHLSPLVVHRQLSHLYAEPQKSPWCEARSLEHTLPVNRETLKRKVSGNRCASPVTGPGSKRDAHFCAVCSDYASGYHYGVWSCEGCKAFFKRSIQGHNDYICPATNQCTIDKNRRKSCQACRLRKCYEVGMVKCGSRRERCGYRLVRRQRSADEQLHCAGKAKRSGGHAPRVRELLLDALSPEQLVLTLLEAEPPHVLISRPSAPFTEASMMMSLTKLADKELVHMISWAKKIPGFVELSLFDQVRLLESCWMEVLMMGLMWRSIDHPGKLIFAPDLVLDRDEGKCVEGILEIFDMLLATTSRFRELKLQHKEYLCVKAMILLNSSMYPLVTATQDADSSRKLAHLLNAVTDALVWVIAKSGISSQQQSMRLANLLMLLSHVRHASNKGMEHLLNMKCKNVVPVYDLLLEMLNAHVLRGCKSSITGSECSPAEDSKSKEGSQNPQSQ

Chain of Ion channel NompC (Q7T1G6 whole entry): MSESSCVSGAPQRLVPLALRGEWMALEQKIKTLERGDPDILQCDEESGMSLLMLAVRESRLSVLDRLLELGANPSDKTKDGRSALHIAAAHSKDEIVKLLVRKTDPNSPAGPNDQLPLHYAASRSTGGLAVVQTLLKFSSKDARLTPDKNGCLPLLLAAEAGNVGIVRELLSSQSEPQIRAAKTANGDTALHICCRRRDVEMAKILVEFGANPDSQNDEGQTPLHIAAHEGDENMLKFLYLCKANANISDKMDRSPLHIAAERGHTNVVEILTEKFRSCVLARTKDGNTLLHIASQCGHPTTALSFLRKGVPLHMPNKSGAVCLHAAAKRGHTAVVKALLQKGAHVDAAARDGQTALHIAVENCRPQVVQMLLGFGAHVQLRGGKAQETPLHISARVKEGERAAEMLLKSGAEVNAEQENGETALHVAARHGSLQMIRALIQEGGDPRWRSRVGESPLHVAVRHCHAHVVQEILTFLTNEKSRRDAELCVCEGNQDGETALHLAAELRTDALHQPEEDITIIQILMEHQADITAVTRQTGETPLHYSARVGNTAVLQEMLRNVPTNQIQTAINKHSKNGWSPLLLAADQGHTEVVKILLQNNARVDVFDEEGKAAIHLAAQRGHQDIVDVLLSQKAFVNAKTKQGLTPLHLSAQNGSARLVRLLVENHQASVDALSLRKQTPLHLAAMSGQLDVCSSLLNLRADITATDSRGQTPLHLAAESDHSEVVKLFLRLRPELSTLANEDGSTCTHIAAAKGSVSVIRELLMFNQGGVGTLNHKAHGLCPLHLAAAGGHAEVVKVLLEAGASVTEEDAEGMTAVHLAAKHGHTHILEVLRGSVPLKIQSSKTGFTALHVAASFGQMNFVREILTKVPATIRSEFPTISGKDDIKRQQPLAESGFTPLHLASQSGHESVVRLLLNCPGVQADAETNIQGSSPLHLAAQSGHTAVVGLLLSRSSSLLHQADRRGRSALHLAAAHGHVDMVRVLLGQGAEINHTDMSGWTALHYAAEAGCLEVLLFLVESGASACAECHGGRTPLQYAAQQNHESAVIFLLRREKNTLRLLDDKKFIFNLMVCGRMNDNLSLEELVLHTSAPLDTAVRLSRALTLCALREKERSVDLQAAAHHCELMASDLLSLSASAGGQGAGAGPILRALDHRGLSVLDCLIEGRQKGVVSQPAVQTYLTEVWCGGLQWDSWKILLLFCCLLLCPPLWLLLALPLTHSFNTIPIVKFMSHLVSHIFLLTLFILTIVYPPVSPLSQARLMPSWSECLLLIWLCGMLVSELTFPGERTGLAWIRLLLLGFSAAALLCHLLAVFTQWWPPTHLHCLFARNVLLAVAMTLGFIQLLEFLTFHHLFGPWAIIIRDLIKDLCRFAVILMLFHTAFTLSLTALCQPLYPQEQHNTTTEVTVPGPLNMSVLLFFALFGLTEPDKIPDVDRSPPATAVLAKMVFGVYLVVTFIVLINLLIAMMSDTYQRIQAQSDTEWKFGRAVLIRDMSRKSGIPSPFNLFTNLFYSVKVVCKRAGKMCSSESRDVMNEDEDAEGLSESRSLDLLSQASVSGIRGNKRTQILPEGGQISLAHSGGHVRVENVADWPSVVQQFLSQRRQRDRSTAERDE
Chain of Nucleotide-binding oligomerization domain-containing protein 2 (Q9HC29 whole entry, the tested form may be a part): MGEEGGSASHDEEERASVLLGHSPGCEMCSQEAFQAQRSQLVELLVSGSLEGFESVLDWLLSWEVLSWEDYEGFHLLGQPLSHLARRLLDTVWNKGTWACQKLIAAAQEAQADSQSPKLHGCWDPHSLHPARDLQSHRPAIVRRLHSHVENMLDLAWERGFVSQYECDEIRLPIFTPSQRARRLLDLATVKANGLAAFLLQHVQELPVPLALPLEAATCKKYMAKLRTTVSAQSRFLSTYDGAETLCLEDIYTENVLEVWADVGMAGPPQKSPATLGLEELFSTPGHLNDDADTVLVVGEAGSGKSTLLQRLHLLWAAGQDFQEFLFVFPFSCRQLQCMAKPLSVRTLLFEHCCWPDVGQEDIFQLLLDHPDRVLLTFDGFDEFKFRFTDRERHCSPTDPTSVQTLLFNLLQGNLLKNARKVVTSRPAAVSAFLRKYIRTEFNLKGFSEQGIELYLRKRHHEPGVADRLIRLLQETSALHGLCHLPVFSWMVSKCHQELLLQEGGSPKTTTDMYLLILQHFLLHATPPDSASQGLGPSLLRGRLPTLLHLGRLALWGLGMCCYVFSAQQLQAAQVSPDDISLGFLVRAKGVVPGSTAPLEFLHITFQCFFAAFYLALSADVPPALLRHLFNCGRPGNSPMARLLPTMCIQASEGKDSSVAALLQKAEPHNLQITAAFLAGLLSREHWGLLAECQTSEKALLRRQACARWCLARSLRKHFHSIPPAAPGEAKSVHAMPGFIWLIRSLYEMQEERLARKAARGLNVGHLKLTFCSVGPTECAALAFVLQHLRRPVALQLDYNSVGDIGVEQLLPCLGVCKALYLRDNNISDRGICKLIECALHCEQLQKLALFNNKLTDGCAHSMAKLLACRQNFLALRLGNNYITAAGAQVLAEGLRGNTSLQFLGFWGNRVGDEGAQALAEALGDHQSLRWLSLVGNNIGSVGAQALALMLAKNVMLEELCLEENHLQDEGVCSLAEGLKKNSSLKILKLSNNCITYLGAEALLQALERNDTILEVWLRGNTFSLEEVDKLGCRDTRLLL
Chain of Large T antigen (P03070 whole entry): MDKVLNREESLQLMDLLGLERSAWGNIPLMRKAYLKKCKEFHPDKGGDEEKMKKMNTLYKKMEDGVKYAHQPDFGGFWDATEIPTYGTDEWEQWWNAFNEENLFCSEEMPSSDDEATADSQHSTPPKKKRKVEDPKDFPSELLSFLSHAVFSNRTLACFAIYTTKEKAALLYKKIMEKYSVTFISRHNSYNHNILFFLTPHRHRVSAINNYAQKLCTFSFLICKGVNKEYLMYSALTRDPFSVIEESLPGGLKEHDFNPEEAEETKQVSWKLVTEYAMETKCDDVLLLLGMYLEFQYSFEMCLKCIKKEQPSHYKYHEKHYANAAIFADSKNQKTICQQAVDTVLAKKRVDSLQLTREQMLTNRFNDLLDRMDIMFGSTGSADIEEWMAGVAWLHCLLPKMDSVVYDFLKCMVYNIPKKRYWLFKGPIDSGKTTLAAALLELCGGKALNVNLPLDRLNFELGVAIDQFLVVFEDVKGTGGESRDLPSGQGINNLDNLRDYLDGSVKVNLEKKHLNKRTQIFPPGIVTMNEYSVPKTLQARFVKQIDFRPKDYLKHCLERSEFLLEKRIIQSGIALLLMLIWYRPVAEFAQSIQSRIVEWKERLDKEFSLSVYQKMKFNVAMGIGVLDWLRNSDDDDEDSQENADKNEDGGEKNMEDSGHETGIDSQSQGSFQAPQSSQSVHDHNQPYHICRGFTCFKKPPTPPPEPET

## COc1ccc(N(C)S(=O)(=O)c2ccc(C)cc2)c([N+](=O)[O-])c1
[1]
  EC50: 3.13 µM (active)
[2]
  EC50: > 29.9 µM (not active)

## O=C(C1=C(O)C(=O)N(c2nccs2)C1c1ccccc1)c1ccc2c(c1)OCCO2 (centres undefined)
[3]
  EC50: 1.11 µM (active)
[4]
  IC50: > 20 µM (inactive)
[5]
  EC50: 7.17 µM (active)
[6]
  EC50: 4.2 µM (active)
[7]
  IC50: 18.6 µM (inactive)
[8]
  EC50: 5.45 µM (active)
[9]
  EC50: 0.146 µM (active)
[10]
  IC50: > 20 µM (inactive)
[11]
  EC50: 11.5 µM (active)
[12]
  EC50: < 0.1 µM (active)
[13]
  IC50: > 20 µM (inactive)
[14]
  EC50: 1.93 µM (active)

## O=C(NN1C(=O)c2ccccc2NC1c1ccco1)c1ccccc1 (centres undefined)
[15]
  IC50: 61.3 µM (active)

## O=C(CN1C(=O)c2ccccc2S1(=O)=O)c1ccc(F)cc1
[16]
  AC50: > 260 µM (inactive)
[17]
  AC50: > 52 µM (inactive)
[3]
  EC50: 1.87 µM (active)
[5]
  EC50: 5.89 µM (active)
[18]
  AC50: 2.75 µM (active)
[19]
  AC50: 3.02 µM (active)
[6]
  EC50: 1.12 µM (active)
[9]
  EC50: 11.4 µM (active)
[12]
  EC50: < 0.1 µM (active)
[14]
  EC50: 2.32 µM (active)
[20]
  AC50: > 52 µM (inactive)

## Cc1cc(C(C)c2ccccc2)c(O)c(CN2CCOCC2)c1C (centres undefined)
[1]
  EC50: 5.07 µM (active)
[2]
  EC50: > 29.9 µM (not active)
[21]
  IC50: > 100 µM (active)

## CCCC[n+]1c2ccccc2cc2ccccc21
[22]
  EC50: 0.041 µM (active)
[23]
  EC50: > 60 µM (not active)
[24]
  EC50: 4.22 µM (active)
[25]
  EC50: > 150 µM (inactive)
[26]
  EC50: 0.604 µM (active)
[27]
  IC50: 42.4 µM (active)
[28]
  EC50: < 0.1 µM (active)

## O=S(=O)(c1ccccc1)C1(S(=O)(=O)c2ccccc2)CCCC1
[1]
  EC50: 5.62 µM (active)
[2]
  EC50: > 29.9 µM (not active)

## CN1CCN(CC(=O)Nc2sc3c(c2C#N)CCCC3)CC1
[29]
  IC50: 15 µM (not active)
